In patent US20240299597A1, “3-Iodopropyl-1,2,3-Triazol-1-yl, 3-Bromopropyl-1,2,3-Triazol-1-yl, and Derivatives for Uses in Labeling” (Emory University, priority 2021, published 2024):

Assay: Storage stability / shelf life of F-18 labeling precursors
Type: physicochemical
Settings: for stability to storage compared to the tosylate and 4-bromo-tosylate derivatives: comparison in the FIG. 1C legend; for stability on storage: stored below 0 C

| Structure (SMILES) | stability to storage compared to the tosylate and 4-bromo-tosylate derivatives | stability on storage |
| --- | --- | --- |
| CC(=O)OCC1OC(OC2C(COC(C)=O)OC(OC3C(COC(C)=O)OC(OCCCn4cc(CCCBr)nn4)C(OC(C)=O)C3OC(C)=O)C(OC(C)=O)C2OC(C)=O)C(OC(C)=O)C(OC(C)=O)C1OC(C)=O (stereo not shown) [3-bromopropyl-precursor, 2-(acetoxymethyl)-6-((4,5-diacetoxy-2-(acetoxymethyl)-6-((4,5-diacetoxy-2-(acetoxymethyl)-6-(3-(4-(3-bromopropyl)-1H-1,2,3-triazol-1-yl)propoxy)tetrahydro-2H-pyran-3-yl)oxy)tetrahydro-2H-pyran-3-yl)oxy)tetrahydro-2H-pyran-3,4,5-triyl triacetate] | more statable to storage | stable |
| CC(=O)OCC1OC(OC2C(COC(C)=O)OC(OC3C(COC(C)=O)OC(OCCCn4cc(CCCI)nn4)C(OC(C)=O)C3OC(C)=O)C(OC(C)=O)C2OC(C)=O)C(OC(C)=O)C(OC(C)=O)C1OC(C)=O (stereo not shown) [3-iodopropyl-precursor, 2-(acetoxymethyl)-6-((4,5-diacetoxy-2-(acetoxymethyl)-6-((4,5-diacetoxy-2-(acetoxymethyl)-6-(3-(4-(3-iodopropyl)-1H-1,2,3-triazol-1-yl)propoxy)tetrahydro-2H-pyran-3-yl)oxy)tetrahydro-2H-pyran-3-yl)oxy)tetrahydro-2H-pyran-3,4,5-triyl triacetate] | more statable to storage | stable |
